# Assay results from patent US9464064B2, “HCV helicase inhibitors and methods of use thereof” (University of Kansas, priority 2011, dated 2016).
# How the values were obtained:
# [1] = molecular target: T1, NS3h_2a (Hepatitis C virus genotype 2a, UniProt Q99IB8); assay: RNA helicase assay (three-stranded RNA substrate); assay type: biochemical, hepatitis C virus genotype 2a(JFH1)
# T1 construct: truncated C-terminally His-tagged NS3 proteins lacking the N-terminal protease, called NS3h; His-tag (C); made in house
# T1 sequence (Q99IB8 1196-1661): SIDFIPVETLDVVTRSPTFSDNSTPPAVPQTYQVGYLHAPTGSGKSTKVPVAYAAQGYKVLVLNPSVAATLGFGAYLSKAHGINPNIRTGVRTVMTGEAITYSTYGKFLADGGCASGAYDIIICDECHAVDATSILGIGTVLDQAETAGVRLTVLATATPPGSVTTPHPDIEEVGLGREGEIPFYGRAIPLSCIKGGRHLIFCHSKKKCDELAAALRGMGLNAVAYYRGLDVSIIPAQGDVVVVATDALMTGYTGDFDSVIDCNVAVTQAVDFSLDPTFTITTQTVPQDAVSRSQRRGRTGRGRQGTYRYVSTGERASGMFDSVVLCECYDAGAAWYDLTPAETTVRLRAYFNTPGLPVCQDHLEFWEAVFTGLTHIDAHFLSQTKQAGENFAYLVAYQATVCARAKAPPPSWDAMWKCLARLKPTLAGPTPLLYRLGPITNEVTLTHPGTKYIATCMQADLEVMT
# Description: To act as antivirals in cells, it is also important for an HCV helicase inhibitor to inhibit the activity of the NS3h on RNA. […] As with protein specificity, no differences were uncovered regarding substrate specificity for any of the compounds tested. In other words, none of the compounds preferred to act either on DNA or RNA substrates.
# [2] = molecular target: scNS4A-NS3 (Hepatitis C virus genotype 1b, UniProt Q9WMX2); assay: NS3 protease assay (ENZOLYTE 520), full-length; assay type: biochemical, hepatitis C virus genotype 1b(con1); parameters: other: average of two sets; There is also a His tag
# scNS4A-NS3, sequence (Q9WMX2 1027-1657): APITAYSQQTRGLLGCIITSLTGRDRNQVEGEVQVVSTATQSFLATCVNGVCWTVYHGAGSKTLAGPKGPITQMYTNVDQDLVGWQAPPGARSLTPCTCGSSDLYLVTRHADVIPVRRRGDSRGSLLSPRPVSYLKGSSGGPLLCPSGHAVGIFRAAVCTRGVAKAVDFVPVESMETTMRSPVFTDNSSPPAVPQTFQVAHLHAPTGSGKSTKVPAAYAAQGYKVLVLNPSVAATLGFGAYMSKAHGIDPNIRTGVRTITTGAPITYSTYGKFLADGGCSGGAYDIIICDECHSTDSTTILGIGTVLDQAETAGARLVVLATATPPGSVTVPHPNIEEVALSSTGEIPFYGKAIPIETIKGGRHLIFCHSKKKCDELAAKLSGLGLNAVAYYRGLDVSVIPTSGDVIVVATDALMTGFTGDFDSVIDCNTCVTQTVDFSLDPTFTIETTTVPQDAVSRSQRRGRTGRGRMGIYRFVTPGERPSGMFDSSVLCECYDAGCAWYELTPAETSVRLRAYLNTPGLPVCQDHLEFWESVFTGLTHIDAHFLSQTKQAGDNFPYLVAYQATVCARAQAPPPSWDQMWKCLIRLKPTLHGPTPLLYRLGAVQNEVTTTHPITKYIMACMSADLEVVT
# Description: All oligonucleotides were purchased from Integrated DNA Technologies (IDT, Coralville, Iowa). Primuline derivatives were synthesized and purified as described herein. Three different NS3 proteins were used in this study. Two were truncated C-terminally His-tagged NS3 proteins lacking the N-terminal protease, called NS3h, the third was a full-length NS3 with the portion of NS4A needed for protease activation fused to its N-terminus, called scNS4A-NS3 (Howe, et al. (1999) Protein Sci. 8:1332-41), and the fourth was a 23 kDa scNS4A-NS3 protease fragment lacking the helicase domains, called scNS4A-NS3p (Protein One, Rockville, Md.). NS3h was expressed from two different HCV strains. NS3h_1b(con1) was from the con1 strain of genotype 1b (GENBANK accession AB114136), and NS3h_2a(JFH1) was from the JFH1 strain of HCV genotype 2a (GENBANK accession AJ238799). […] His-tagged recombinant NS3h_1b(con1), NS3h_2a(JFH1), and scNS4A-NS3 (also from genotype 1b(con1)) were expressed, and purified as previously described (Frick, et al. (2010) supra; Lam, et al. (2003) J. Virol. 77:3950-3961). The scNS4A-NS3p (genotype 1b) was from Protein One. A plasmid expressing NS3h from dengue virus strain 2 (NS3h_DV2)(GENBANK accession 2BMF) is known in the art (Xu, et al. (2005) J. Virol. 79:10278-10288), and used to express and purify NS3h_DV2 (Belon, et al. (2010) supra)
# All NS3 protease assays were carried out using the 5-Carboxyfluorescein-labeled substrate from the AnaSpec. ENZOLYTE 520 Protease Assay Kit (AnaSpec, San Jose, Calif.). Each assay contained 5 nM scNS4A-NS3 or 50 nM scNS4A-NS3p, […], 5% DMSO and 1× Anaspec HCV protease assay buffer. Assays were carried out in a total volume of 20 μl in black 384-well plates with fluorescence at 520 nm measured using a BMG FLUOstar Omega fluorescence spectrophotometer. Reactions were performed with eight concentrations of a two-fold dilution series of each compound (in duplicate) starting at 100 μM.
# [3] = molecular target: T2, NS3h_DV2 (Dengue virus type 2, UniProt P29990); assay: RNA-stimulated ATP hydrolysis, pH 7.5, Dengue; assay type: biochemical; conditions: 10 μM poly(U) RNA, read-out: ATPase w/RNA NS3h_DV2 IC50 (μM) ± SD
# T2 construct: made in house
# T2 sequence (P29990 1646-2093): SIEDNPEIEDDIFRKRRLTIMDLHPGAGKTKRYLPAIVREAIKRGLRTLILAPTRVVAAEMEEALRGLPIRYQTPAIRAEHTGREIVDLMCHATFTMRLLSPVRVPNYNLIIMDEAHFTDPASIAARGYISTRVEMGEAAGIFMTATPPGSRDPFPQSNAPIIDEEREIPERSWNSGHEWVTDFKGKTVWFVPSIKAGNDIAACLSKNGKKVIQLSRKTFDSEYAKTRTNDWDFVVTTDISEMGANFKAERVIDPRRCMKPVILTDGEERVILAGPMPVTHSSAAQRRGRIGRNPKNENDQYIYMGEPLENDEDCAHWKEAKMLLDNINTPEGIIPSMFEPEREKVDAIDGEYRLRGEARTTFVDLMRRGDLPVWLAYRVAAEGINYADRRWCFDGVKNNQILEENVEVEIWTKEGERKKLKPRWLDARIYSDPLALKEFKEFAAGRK
# Description: (§1) To compare the effect of compounds on HCV NS3h_1b (con1) to NS3h_DV2, reactions were performed with 2 nM of either enzyme in 25 mM Tris pH 7.5, 1.25 mM MgCl2, 1.0 mM ATP, 10% DMSO, 5 μg/ml BSA, 0.01% (v/v) TWEEN 20, 0.05 mM DTT, and 10 μM poly(U) RNA at 37° C.
# (§2) To further profile compound specificity, it was determined whether the compounds would inhibit homologous NS3h expressed by the Dengue virus (NS3h_DV2). […] The same assays were also repeated with HCV NS3h_1b(con1) for comparison.
# [4] = molecular target: T3, NS3h_1b(con1) (Hepatitis C virus genotype 1b, UniProt Q9WMX2); assay: RNA-stimulated ATP hydrolysis, pH 7.5, HCV; assay type: biochemical, hepatitis C virus genotype 1b(con1)
# T3 construct: truncated C-terminally His-tagged NS3 proteins lacking the N-terminal protease, called NS3h; His-tag (C); made in house
# T3 sequence (Q9WMX2 1192-1657): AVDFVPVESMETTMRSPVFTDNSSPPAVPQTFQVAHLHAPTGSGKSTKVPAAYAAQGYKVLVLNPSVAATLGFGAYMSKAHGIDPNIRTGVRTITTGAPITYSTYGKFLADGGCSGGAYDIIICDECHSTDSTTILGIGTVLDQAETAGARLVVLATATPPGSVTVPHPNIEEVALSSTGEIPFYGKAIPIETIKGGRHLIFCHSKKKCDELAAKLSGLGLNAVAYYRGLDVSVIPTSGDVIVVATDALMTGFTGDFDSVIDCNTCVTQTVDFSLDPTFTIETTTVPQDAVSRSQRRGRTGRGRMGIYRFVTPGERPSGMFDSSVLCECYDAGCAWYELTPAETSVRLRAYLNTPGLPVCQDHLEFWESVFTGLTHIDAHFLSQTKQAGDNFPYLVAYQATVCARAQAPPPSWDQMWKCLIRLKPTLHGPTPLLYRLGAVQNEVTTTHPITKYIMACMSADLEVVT
# Description: as §1
# as §2, with “comparison. […] However, most of the primuline derivatives were relatively potent inhibitors of RNA-stimulated ATP hydrolysis catalyzed by the Dengue enzyme under the same conditions.” for “comparison.”
# [5] = molecular target: T4, NS3h_1b (Hepatitis C virus genotype 1b, UniProt Q9WMX2); assay: ATPase assay without RNA; assay type: biochemical, hepatitis C virus genotype 1b(con1)
# T4 construct: truncated C-terminally His-tagged NS3 proteins lacking the N-terminal protease, called NS3h; His-tag (C); made in house
# T4 sequence (Q9WMX2 1192-1657): as above
# Description: A modified “malachite green” assay (Lanzetta, et al. (1979) Anal. Biochem. 100:95-97) was used to measure ATP hydrolysis. Fifty μL reactions contained 25 mM MOPS pH 6.5, 5 mM MgCl2, 2 mM ATP, 5 μg/mL BSA, 0.01% (v/v) TWEEN 20, 0.05 mM DTT, and poly(U) RNA (Saint Louis, Mo.) as indicated. Reactions were initiated by adding NS3h_1b(con1). Reactions were incubated for 15 minutes at 37° C. then stopped by mixing 40 μL of the reaction into 200 μL of the malachite green reagent (3 volumes 0.045% (w/v) malachite green, 1 volume 4.2% ammonium molybdate in 4N HCl, 0.05 volume of 20% TWEEN 20). […] Absorbance at 630 nm was proportional to the concentration of phosphate produced; free phosphate produced was measured against a standard curve.
# A simple explanation for the ability of some of the primuline derivatives to inhibit helicase and protease with similar potency would be that the compounds acted by simply aggregating or denaturing the enzyme. To test for irreversible inhibition, NS3h was incubated with 100 μM of each compound, diluted and then assayed for its ability to unwind DNA under standard conditions. […] In a second test for a simple aggregation mechanism, each compound was tested for its ability to inhibit NS3-catalyzed ATP hydrolysis. ATP hydrolysis fuels the unwinding reaction and NS3 hydrolyzes ATP both in the presence and absence of DNA or RNA; nucleic acid stimulates NS3 catalyzed ATP hydrolysis about 50-fold. […] To test this hypothesis, ATPase assays were performed in the presence of various concentrations of each primuline derivative, under conditions similar to those used to monitor effects on DNA and RNA unwinding. Far more of each compound was needed to inhibit NS3-catalyzed ATP hydrolysis than was needed to inhibit the helicase activity, or, in some cases, NS3 protease activity (Table 11).
SMILES,IC50 [1] [µM],IC50 [2] [µM],IC50 [3] [µM],IC50 [4] [µM],IC50 [5] [µM]
"Cc1ccc2nc(-c3ccc4nc(-c5ccc(NC(=O)c6cc(C(F)(F)F)cc(C(F)(F)F)c6)cc5)sc4c3)sc2c1S(=O)(=O)O [Compound 24, 2′-(4-(3,5-bis(trifluoromethyl)benzamido)phenyl)-6-methyl-[2,6′-bibenzo[d]thiazole]-7-sulfonic acid]",14 ± 13,23 ± 15,11 ± 2,> 200,141 ± 28
"Cc1ccc2nc(-c3ccc4nc(-c5ccc(NC(=O)c6ccc(Br)cc6)cc5)sc4c3)sc2c1S(=O)(=O)O [Compound 15, 2′-(4-(4-bromobenzamido)phenyl)-6-methyl-[2,6′-bibenzo[d]thiazole]-7-sulfonic acid]",4 ± 2,6 ± 1,3 ± 0.8,21 ± 1,50 ± 4
"Cc1ccc2nc(-c3ccc4nc(-c5ccc(NC(=O)c6ccc(C(C)(C)C)cc6)cc5)sc4c3)sc2c1S(=O)(=O)O [Compound 13, 2′-(4-(4-(tert-butyl)benzamido)phenyl)-6-methyl-[2,6′-bibenzo[d]thiazole]-7-sulfonic acid]",9 ± 9,56 ± 23,8 ± 1,150 ± 40,150 ± 21
"Cc1ccc2nc(-c3ccc4nc(-c5ccc(N)cc5)sc4c3)sc2c1S(=O)(=O)O [Compound P2a, 2′-(4-aminophenyl)-6-methyl-[2,6′-bibenzo[d]thiazole]-7-sulfonic acid]",32 ± 14,> 100,32 ± 17,> 200,> 200
"Cc1ccc2nc(-c3ccc4nc(-c5ccc(NC(=O)c6ccc(Cl)c(Cl)c6)cc5)sc4c3)sc2c1S(=O)(=O)O [Compound 18, 2′-(4-(3,4-dichlorobenzamido)phenyl)-6-methyl-[2,6′-bibenzo[d]thiazole]-7-sulfonic acid]",4 ± 2,13 ± 4,4 ± 1,72 ± 13,44 ± 12
"Cc1ccc2nc(-c3ccc4nc(-c5ccc6nc(-c7ccc8nc(-c9ccc(N)cc9)sc8c7)sc6c5)sc4c3)sc2c1S(=O)(=O)O [Compound P4, 2′″-(4-aminophenyl)-6-methyl-[2,6′:2″,6′″-quaterbenzo[d]thiazole]-7-sulfonic acid]",3 ± 1.3,2 ± 1,0.94 ± 0.7,–,43 ± 10
"Cc1ccc2nc(-c3ccc4nc(-c5ccc(NC(=O)c6ccc(N)cc6)cc5)sc4c3)sc2c1S(=O)(=O)O [Compound 6, 2′-(4-(4-aminobenzamido)phenyl)-6-methyl-[2,6′-bibenzo[d]thiazole]-7-sulfonic acid]",7 ± 3,39 ± 17,12 ± 4,140 ± 3,194 ± 30
"Cc1ccc2nc(-c3ccc4nc(-c5ccc(NC(=O)c6ccc(F)cc6)cc5)sc4c3)sc2c1S(=O)(=O)O.N [Compound 7, 2′-(4-(4-fluorobenzamido)phenyl)-6-methyl-[2, bibenzo[d]thiazole]-7-sulfonic acid]",4 ± 2,89 ± 47,6 ± 1,73 ± 13,67 ± 30
"Cc1ccc2nc(-c3ccc4nc(-c5ccc(NC(=O)c6ccc(C(F)(F)F)cc6)cc5)sc4c3)sc2c1S(=O)(=O)O [Compound 12, 6-methyl-2′-(4-(4-(trifluoromethyl)benzamido)phenyl)-[2,6′-bibenzo[d]thiazole]-7-sulfonic acid]",3 ± 1,5 ± 1,2 ± 0.5,16 ± 5,24 ± 5
"Cc1ccc2nc(-c3ccc4nc(-c5ccc(NC(=O)c6ccc7nc(-c8ccc(N)cc8)sc7c6)cc5)sc4c3)sc2c1S(=O)(=O)O [Compound 35, 2′-(4-(2-(4-aminophenyl)benzo[d]thiazole-6-carboxamido)phenyl)-6-methyl-[2,6′-bibenzo[d]thiazole]-7-sulfonic acid]",6 ± 5.4,7 ± 1,–,150 ± 2,> 200
"Cc1ccc2nc(-c3ccc4nc(-c5ccc(NC(=O)c6cccc(Cl)c6)cc5)sc4c3)sc2c1S(=O)(=O)O [Compound 17, 2′-(4-(3-chlorobenzamido)phenyl)-6-methyl-[2,6′-bibenzo[d]thiazole]-7-sulfonic acid]",6 ± 3.1,> 100,4 ± 0.6,51 ± 3,74 ± 7
"Cc1ccc2nc(-c3ccc4nc(-c5ccc(NC(=O)c6ccc7ccccc7c6)cc5)sc4c3)sc2c1S(=O)(=O)O [Compound 33, 2′-(4-(2-naphthamido)phenyl)-6-methyl-[2,6′-bibenzo[d]thiazole]-7-sulfonic acid]",3 ± 2,> 100,3 ± 1,52 ± 6,30 ± 6
"Cc1ccc2nc(-c3ccc4nc(-c5ccc(NC(=O)c6cc(C(F)(F)F)ccc6F)cc5)sc4c3)sc2c1S(=O)(=O)O [Compound 25, 2′-(4-(2-fluoro-5-(trifluoromethyl)benzamido)phenyl)-6-methyl-[2,6′-bibenzo[d]thiazole]-7-sulfonic acid]",10 ± 3,51 ± 25,7 ± 0.1,19 ± 2,61 ± 13
